Data published in PubChem BioAssay AID248 (DTP/NCI, 2004).
Values joined by “and” are separate entries in the source; they are usually repeats but may differ in a detail not shown here. Equal entries are not always repeated. Toxic doses and inconclusive results are not listed.

System: L1210 leukemia ip in BDF1 mice, survival T/C
Assay: NCI In Vivo Anticancer Drug Screen. Data for tumor model L1210 Leukemia (intraperitoneal) in B6D2F1 (BDF1) mice
Details: endpoint: mean survival time, higher = longer survival
Method in brief: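 Value reflects the ratio of survival in compound-treated mice to survival in vehicle-treated controls, with both groups carrying the same transplanted tumor.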

[1] = dose: 100.0 mg/kg/injection, schedule: Q01DX001 (ip), vehicle: saline
[2] = dose: 200.0 mg/kg/injection, schedule: Q01DX001 (ip), vehicle: saline
[3] = dose: 400.0 mg/kg/injection, schedule: Q01DX001 (ip), vehicle: saline

O=C(Nc1ccc(C2=NCCN2)cc1)c1cc(C(=O)Nc2ccc(C3=NCCN3)cc2)ncn1
T/C (dose: 0.47 mg/kg/injection, schedule: Q01DX015 (ip), vehicle: methylcellulose (MC)): 96 % of control
T/C (dose: 0.93 mg/kg/injection, schedule: Q01DX015 (ip), vehicle: methylcellulose (MC)): 108 % of control
T/C (dose: 0.93 mg/kg/injection, schedule: Q01DX Z (ip), vehicle: carboxymethylcellulose (CMC)): 94 % of control
T/C (dose: 1.87 mg/kg/injection, schedule: Q01DX015 (ip), vehicle: methylcellulose (MC)): 100 % of control and 101 % of control
T/C (dose: 1.87 mg/kg/injection, schedule: Q01DX Z (ip), vehicle: carboxymethylcellulose (CMC)): 120 % of control
T/C (dose: 3.75 mg/kg/injection, schedule: Q01DX015 (ip), vehicle: methylcellulose (MC)): 102 % of control and 116 % of control
T/C (dose: 6.25 mg/kg/injection, schedule: Q01DX001 (ip), vehicle: methylcellulose (MC)): 112 % of control
T/C (dose: 7.5 mg/kg/injection, schedule: Q01DX015 (ip), vehicle: methylcellulose (MC)): 116 % of control and 118 % of control
T/C (dose: 12.5 mg/kg/injection, schedule: Q01DX001 (ip), vehicle: methylcellulose (MC)): 108 % of control
T/C (dose: 15.0 mg/kg/injection, schedule: Q01DX015 (ip), vehicle: other): 153 % of control
T/C (dose: 15.0 mg/kg/injection, schedule: Q01DX Z (ip), vehicle: carboxymethylcellulose (CMC)): 303 % of control
T/C (dose: 25.0 mg/kg/injection, schedule: Q01DX001 (ip), vehicle: methylcellulose (MC)): 104 % of control
T/C (dose: 30.0 mg/kg/injection, schedule: Q01DX015 (ip), vehicle: methylcellulose (MC)): 93 % of control
T/C (dose: 30.0 mg/kg/injection, schedule: Q01DX015 (ip), vehicle: other): 241 % of control
T/C (dose: 30.0 mg/kg/injection, schedule: Q01DX Z (ip), vehicle: carboxymethylcellulose (CMC)): 224 % of control
T/C (dose: 36.0 mg/kg/injection, schedule: Q01DX001 (ip), vehicle: carboxymethylcellulose (CMC)): 118 % of control
T/C (dose: 36.0 mg/kg/injection, schedule: Q01DX001 (ip), vehicle: other): 112 % of control
T/C (dose: 50.0 mg/kg/injection, schedule: Q01DX001 (ip), vehicle: methylcellulose (MC)): 122 % of control
T/C (dose: 53.0 mg/kg/injection, schedule: Q01DX001 (ip), vehicle: carboxymethylcellulose (CMC)): 118 % of control
T/C (dose: 53.0 mg/kg/injection, schedule: Q01DX001 (ip), vehicle: other): 121 % of control
T/C (dose: 60.0 mg/kg/injection, schedule: Q01DX015 (ip), vehicle: other): 102 % of control
T/C (dose: 60.0 mg/kg/injection, schedule: Q01DX Z (ip), vehicle: carboxymethylcellulose (CMC)): 154 % of control
T/C (dose: 79.0 mg/kg/injection, schedule: Q01DX001 (ip), vehicle: carboxymethylcellulose (CMC)): 124 % of control
T/C (dose: 120.0 mg/kg/injection, schedule: Q01DX Z (ip), vehicle: carboxymethylcellulose (CMC)): 121 % of control
T/C (dose: 180.0 mg/kg/injection, schedule: Q01DX001 (ip), vehicle: carboxymethylcellulose (CMC)): 157 % of control
T/C (dose: 180.0 mg/kg/injection, schedule: Q01DX001 (ip), vehicle: other): 162 % of control
T/C (dose: 270.0 mg/kg/injection, schedule: Q01DX001 (ip), vehicle: carboxymethylcellulose (CMC)): 169 % of control
T/C (dose: 405.0 mg/kg/injection, schedule: Q01DX001 (ip), vehicle: carboxymethylcellulose (CMC)): 193 % of control

CO[C@@]12[C@H](COC(N)=O)C3=C(C(=O)C(C)=C(NCCO)C3=O)N1C[C@@H]1N[C@@H]12
T/C (dose: 2.9 mg/kg/injection, schedule: Q01DX001 (ip), vehicle: acetone): 113 % of control
T/C (dose: 4.3 mg/kg/injection, schedule: Q01DX001 (ip), vehicle: acetone): 117 % of control
T/C (dose: 6.6 mg/kg/injection, schedule: Q01DX001 (ip), vehicle: saline): 113 % of control
T/C (dose: 7.5 mg/kg/injection, schedule: Q01DX009 (ip), vehicle: saline): 91 % of control
T/C (dose: 9.9 mg/kg/injection, schedule: Q01DX001 (ip), vehicle: saline): 111 % of control
T/C (dose: 22.0 mg/kg/injection, schedule: Q01DX001 (ip), vehicle: saline): 113 % of control
T/C (dose: 33.0 mg/kg/injection, schedule: Q01DX001 (ip), vehicle: acetone): 159 % of control

Cc1cccc(C)c1NC(=O)OCCOc1ccc(Cl)cc1Cl
T/C (dose: 50.0 mg/kg/injection, schedule: Q01DX009 (ip), vehicle: saline with Tween-80): 90 % of control
T/C (dose: 100.0 mg/kg/injection, schedule: Q01DX009 (ip), vehicle: saline with Tween-80): 95 % of control
T/C (dose: 200.0 mg/kg/injection, schedule: Q01DX009 (ip), vehicle: saline with Tween-80): 95 % of control

CC(=O)c1ccc(N=C(N)N=C(N)N)cc1
T/C (dose: 75.0 mg/kg/injection, schedule: Q01DX001 (ip), vehicle: carboxymethylcellulose (CMC)): 110 % of control
T/C (dose: 150.0 mg/kg/injection, schedule: Q01DX001 (ip), vehicle: carboxymethylcellulose (CMC)): 93 % of control

OC(c1ccccc1)(c1ccccc1)c1cccs1
T/C (dose: 100.0 mg/kg/injection, schedule: Q04DX003 (ip), vehicle: saline with Tween-80): 94 % of control
T/C (dose: 200.0 mg/kg/injection, schedule: Q04DX003 (ip), vehicle: saline with Tween-80): 94 % of control
T/C (dose: 400.0 mg/kg/injection, schedule: Q04DX003 (ip), vehicle: saline with Tween-80): 91 % of control

O=C(NCCCCC(NC(=O)OCc1ccccc1)C(=O)Nc1ccc(Nc2ccc(NC(=O)C(CCCCNC(=O)OCc3ccccc3)NC(=O)OCc3ccccc3)cc2)cc1)OCc1ccccc1 (centres undefined)
T/C [1]: 88 % of control
T/C [2]: 92 % of control
T/C [3]: 94 % of control

O=C(Nc1ccccc1)c1ccc(C(=O)Nc2ccccc2)cc1
T/C (dose: 100.0 mg/kg/injection, schedule: Q01DX001 (ip), vehicle: carboxymethylcellulose (CMC)): 86 % of control
T/C (dose: 100.0 mg/kg/injection, schedule: Q01DX001 (oral), vehicle: carboxymethylcellulose (CMC)): 108 % of control
T/C (dose: 100.0 mg/kg/injection, schedule: Q01DX009 (ip), vehicle: carboxymethylcellulose (CMC)): 101 % of control
T/C (dose: 100.0 mg/kg/injection, schedule: Q01DX009 (oral), vehicle: carboxymethylcellulose (CMC)): 103 % of control
T/C (dose: 200.0 mg/kg/injection, schedule: Q01DX001 (ip), vehicle: carboxymethylcellulose (CMC)): 87 % of control
T/C (dose: 200.0 mg/kg/injection, schedule: Q01DX001 (oral), vehicle: carboxymethylcellulose (CMC)): 108 % of control
T/C (dose: 200.0 mg/kg/injection, schedule: Q01DX009 (ip), vehicle: carboxymethylcellulose (CMC)): 100 % of control
T/C (dose: 200.0 mg/kg/injection, schedule: Q01DX009 (oral), vehicle: carboxymethylcellulose (CMC)): 105 % of control
T/C (dose: 400.0 mg/kg/injection, schedule: Q01DX001 (ip), vehicle: carboxymethylcellulose (CMC)): 87 % of control
T/C (dose: 400.0 mg/kg/injection, schedule: Q01DX001 (oral), vehicle: carboxymethylcellulose (CMC)): 104 % of control
T/C (dose: 400.0 mg/kg/injection, schedule: Q01DX009 (ip), vehicle: carboxymethylcellulose (CMC)): 95 % of control
T/C (dose: 400.0 mg/kg/injection, schedule: Q01DX009 (oral), vehicle: carboxymethylcellulose (CMC)): 111 % of control
T/C (dose: 800.0 mg/kg/injection, schedule: Q01DX001 (ip), vehicle: carboxymethylcellulose (CMC)): 92 % of control
T/C (dose: 800.0 mg/kg/injection, schedule: Q01DX001 (oral), vehicle: carboxymethylcellulose (CMC)): 106 % of control
T/C (dose: 800.0 mg/kg/injection, schedule: Q01DX009 (ip), vehicle: carboxymethylcellulose (CMC)): 97 % of control

CCN(CCNc1ccc(C)c2sc3ccccc3c(=O)c12)CC(C)(C)O
T/C (dose: 25.0 mg/kg/injection, schedule: Q01DX009 (ip), vehicle: saline sonified): 97 % of control
T/C (dose: 32.0 mg/kg/injection, schedule: Q02DX Z (ip), vehicle: distilled water + alcohol): 119 % of control
T/C (dose: 50.0 mg/kg/injection, schedule: Q01DX001 (ip), vehicle: saline): 106 % of control
T/C (dose: 50.0 mg/kg/injection, schedule: Q01DX009 (ip), vehicle: saline sonified): 95 % of control
T/C (dose: 60.0 mg/kg/injection, schedule: Q01DX009 (ip), vehicle: saline): 120 % of control
T/C [1]: 112 % of control
T/C (dose: 100.0 mg/kg/injection, schedule: Q01DX009 (ip), vehicle: saline sonified): 118 % of control
T/C [2]: 109 % of control
T/C (dose: 200.0 mg/kg/injection, schedule: Q04DX003 (ip), vehicle: saline): 104 % of control
T/C (dose: 300.0 mg/kg/injection, schedule: Q01DX009 (ip), vehicle: saline): 95 % of control
T/C [3]: 124 % of control
T/C (dose: 400.0 mg/kg/injection, schedule: Q04DX003 (ip), vehicle: saline): 108 % of control
T/C (dose: 600.0 mg/kg/injection, schedule: Q04DX003 (ip), vehicle: saline): 189 % of control
